Reference: US9611262B2, “Substituted 2-azabicycles and their use as orexin receptor modulators” (JANSSEN PHARMACEUTICA NV, priority 2014, dated 2017)

How the values were obtained:
human orexin 1 receptor = human orexin 1 receptor (Homo sapiens (Human), UniProt O43613); test: Human orexin 1 receptor radioligand binding (competitive); settings: CHO cells stably expressing human orexin 1 receptor; 4 nM radioligand; averages of 2-20 runs; read-out: hOX1 Ki
Summary of the method: (§1)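 Competition binding used HEK293 cells expressing rat OX1 or CHO cells expressing human OX1, with 4 nM final [3H]-labelled thiazolyl-oxadiazolyl-pyrrolidinyl methanone radioligand in PBS. Compounds were tested at 7 concentrations (0.1 nM–10 μM) for 60 min at room temperature, then filtered; 10 μM almorexant defined nonspecific binding. Ki was derived from the one-site IC50 and the radioligand Kd.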

rat orexin 1 receptor = rat orexin 1 receptor (Rattus norvegicus, UniProt P56718); test: Rat orexin 1 receptor radioligand binding (competitive); settings: HEK293 cells stably expressing rat orexin 1 receptor; 4 nM radioligand; averages of 2-20 runs; read-out: rOX1 Ki
Summary of the method: as §1

human orexin 2 receptor = human orexin 2 receptor (Homo sapiens (Human), UniProt O43614); test: Human orexin 2 receptor radioligand binding ([3H]-EMPA competition); settings: HEK293 stably expressing human orexin 2 receptor; 2 nM [3H]-EMPA; averages of 2-20 runs; read-out: hOX2 Ki
Chain of human orexin 2 receptor (O43614 whole entry): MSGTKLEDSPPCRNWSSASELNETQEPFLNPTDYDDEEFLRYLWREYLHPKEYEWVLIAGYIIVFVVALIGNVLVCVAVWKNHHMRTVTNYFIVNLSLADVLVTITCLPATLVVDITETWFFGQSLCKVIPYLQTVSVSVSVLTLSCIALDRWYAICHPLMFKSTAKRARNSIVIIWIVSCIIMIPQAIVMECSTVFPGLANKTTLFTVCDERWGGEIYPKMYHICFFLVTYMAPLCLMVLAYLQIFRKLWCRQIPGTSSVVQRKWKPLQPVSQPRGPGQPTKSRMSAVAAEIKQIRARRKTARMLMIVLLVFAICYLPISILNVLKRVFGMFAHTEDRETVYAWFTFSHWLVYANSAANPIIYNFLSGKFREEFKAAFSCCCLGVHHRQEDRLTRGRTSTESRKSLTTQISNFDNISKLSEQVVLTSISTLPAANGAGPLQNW
Summary of the method: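 Membranes-free whole HEK293 cells stably expressing human OX2 receptor incubated with [3H]-EMPA and compound (7 concentrations, 0.1 nM–10 μM, ≤0.1% DMSO) for 60 min at room temperature; nonspecific binding with 10 μM almorexant. Filtration and scintillation counting; one-site IC50 converted to Ki using predetermined Kd, triplicates averaged over 2-20 runs.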

Chain of human orexin 1 receptor (O43613 whole entry): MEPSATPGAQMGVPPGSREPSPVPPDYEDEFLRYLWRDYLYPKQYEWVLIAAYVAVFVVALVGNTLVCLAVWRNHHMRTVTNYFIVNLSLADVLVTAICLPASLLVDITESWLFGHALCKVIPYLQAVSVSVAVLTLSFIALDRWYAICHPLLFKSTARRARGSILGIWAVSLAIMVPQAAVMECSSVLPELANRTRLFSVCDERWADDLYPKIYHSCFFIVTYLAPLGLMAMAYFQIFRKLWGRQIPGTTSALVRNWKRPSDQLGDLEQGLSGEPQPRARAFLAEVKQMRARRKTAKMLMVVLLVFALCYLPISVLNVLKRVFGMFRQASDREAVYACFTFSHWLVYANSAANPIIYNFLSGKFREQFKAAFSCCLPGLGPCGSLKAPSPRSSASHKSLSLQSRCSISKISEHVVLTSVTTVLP

SMILES | Ki (human orexin 1 receptor) [nM] | Ki (rat orexin 1 receptor) [nM] | Ki (human orexin 2 receptor) [nM]
C[C@@H]1[C@H]2C[C@@H](Oc3cnc(C(F)(F)F)cn3)[C@H](C2)N1C(=O)c1cccc(F)c1-n1nccn1 (relative stereo) [Example 52, (3-fluoro-2-(2H-1,2,3-triazol-2-yl)phenyl)((1S*,3R*,4R*,6R*)-3-methyl-6-((5-(trifluoromethyl)pyrazin-2-yl)oxy)-2-azabicyclo[2.2.1]heptan-2-yl)methanone] | 14 | 18 | 2550
C[C@@H]1[C@H]2C[C@@H](Oc3cnc(C(F)(F)F)cn3)[C@H](C2)N1C(=O)c1cc(F)ccc1-n1nccn1 (relative stereo) [Example 54, (5-fluoro-2-(2H-1,2,3-triazol-2-yl)phenyl)((1S*,3R*,4R*,6R*)-3-methyl-6-((5-(trifluoromethyl)pyrazin-2-yl)oxy)-2-azabicyclo[2.2.1]heptan-2-yl)methanone] | 18 | 26 | 3400
COc1ccc(C(=O)N2[C@H](C)[C@H]3C[C@@H](Oc4cnc(C(F)(F)F)cn4)[C@@H]2C3)c(-n2nccn2)c1 (relative stereo) [Example 57, (4-methoxy-2-(2H-1,2,3-triazol-2-yl)phenyl)((1S*,3R*,4R*,6R*)-3-methyl-6-((5-(trifluoromethyl)pyrazin-2-yl)oxy)-2-azabicyclo[2.2.1]heptan-2-yl)methanone] | 10 | 15 | > 10000
C[C@@H]1[C@H]2C[C@@H](Nc3ccc(C(F)(F)F)cn3)[C@H](C2)N1C(=O)c1ncccc1-c1ncccn1 (relative stereo) [Example 62, ((1S*,3R*,4S*,6R*)-3-methyl-6-((5-(trifluoromethyl)pyridin-2-yl)amino)-2-azabicyclo[2.2.1]heptan-2-yl)(3-(pyrimidin-2-yl)pyridin-2-yl)methanone] | 4 | 5 | 360
Cc1ccc(-n2nccn2)c(C(=O)N2[C@H](C)[C@H]3C[C@@H](Nc4ccc(C(F)(F)F)cn4)[C@@H]2C3)n1 (relative stereo) [Example 63, (6-methyl-3-(2H-1,2,3-triazol-2-yl)pyridin-2-yl)((1S*,3R*,4S*,6R*)-3-methyl-6-((5-(trifluoromethyl)pyridin-2-yl)amino)-2-azabicyclo[2.2.1]heptan-2-yl)methanone] | 4 | 3 | 78
Cc1ccc(-n2nccn2)c(C(=O)N2[C@H](C)[C@H]3C[C@@H](Oc4cnc5cc(F)ccc5n4)[C@@H]2C3)n1 (relative stereo) [Example 186, ((1S*,3R*,4R*,6R*)-6-((6-fluoroquinoxalin-2-yl)oxy)-3-methyl-2-azabicyclo[2.2.1]heptan-2-yl)(6-methyl-3-(2H-1,2,3-triazol-2-yl)pyridin-2-yl)methanone] | 12 | 18 | 125
C[C@@H]1[C@H]2C[C@@H](Oc3cnc4cc(F)ccc4n3)[C@H](C2)N1C(=O)c1cccc(F)c1-n1nccn1 (relative stereo) [Example 187, (3-fluoro-2-(2H-1,2,3-triazol-2-yl)phenyl)((1S*,3R*,4R*,6R*)-6-((6-fluoroquinoxalin-2-yl)oxy)-3-methyl-2-azabicyclo[2.2.1]heptan-2-yl)methanone] | 6 | 7 | 136
C[C@@H]1[C@H]2C[C@@H](Oc3cnc4cc(F)ccc4n3)[C@H](C2)N1C(=O)c1ccccc1-n1nccn1 (relative stereo) [Example 188, (2-(2H-1,2,3-triazol-2-yl)phenyl)((1S*,3R*,4R*,6R*)-6-((6-fluoroquinoxalin-2-yl)oxy)-3-methyl-2-azabicyclo[2.2.1]heptan-2-yl)methanone] | 7 | 6 | 107
Cc1ccc(-n2nccn2)c(C(=O)N2[C@H](C)[C@H]3C[C@@H](Oc4cnc5cc(F)c(F)cc5n4)[C@@H]2C3)n1 (relative stereo) [Example 189, ((1S*,3R*,4R*,6R*)-6-((6,7-difluoroquinoxalin-2-yl)oxy)-3-methyl-2-azabicyclo[2.2.1]heptan-2-yl)(6-methyl-3-(2H-1,2,3-triazol-2-yl)pyridin-2-yl)methanone] | 42 | 41 | 109
CC1C2CC(Oc3ccc(C(F)(F)F)cn3)C(C2)N1C(=O)c1cccc(F)c1-c1ncccn1 (single isomer, unassigned) [Example 1, (R/S)-(3-fluoro-2-(pyrimidin-2-yl)phenyl)(3-methyl-6-((5-(trifluoromethyl)pyridin-2-yl)oxy)-2-azabicyclo[2.2.1]heptan-2-yl)methanone] | 84 | 24 | 5200
CC1C2CC(Oc3ccc(C(F)(F)F)cn3)C(C2)N1C(=O)c1cccc(F)c1-c1ncccn1 (single isomer, unassigned) [Example 8, (R/S)-(3-fluoro-2-(pyrimidin-2-yl)phenyl)(3-methyl-6-((5-(trifluoromethyl)pyridin-2-yl)oxy)-2-azabicyclo[2.2.1]heptan-2-yl)methanone] | 16 | 11 | 1100
Cc1ccc(-c2ncccn2)c(C(=O)N2[C@H](C)[C@H]3C[C@@H](Nc4ccc(C(F)(F)F)cn4)[C@@H]2C3)n1 [Example 60, (6-methyl-3-(pyrimidin-2-yl)pyridin-2-yl)((1S,3R,4S,6R)-3-methyl-6-((5-(trifluoromethyl)pyridin-2-yl)amino)-2-azabicyclo[2.2.1]heptan-2-yl)methanone] | 19 | 16 | 349
Cc1ccc(-c2ncccn2)c(C(=O)N2[C@H](CF)[C@@H]3CC[C@H]2[C@H](Oc2ccc(C(F)(F)F)cn2)C3)n1 [Example 74, ((1S,3S,4R,6R)-3-(fluoromethyl)-6-((5-(trifluoromethyl)pyridin-2-yl)oxy)-2-azabicyclo[2.2.2]octan-2-yl)(6-methyl-3-(pyrimidin-2-yl)pyridin-2-yl)methanone] | 35 | 48 | 3760
O=C(c1ccccc1-c1ncccn1)N1[C@H](CF)[C@@H]2CC[C@H]1[C@H](Oc1ccc(C(F)(F)F)cn1)C2 [Example 75, ((1S,3S,4R,6R)-3-(fluoromethyl)-6-((5-(trifluoromethyl)pyridin-2-yl)oxy)-2-azabicyclo[2.2.2]octan-2-yl)(2-(pyrimidin-2-yl)phenyl)methanone] | 66 | 92 | > 10000
O=C(c1cc(F)ccc1-c1ncccn1)N1[C@H](CF)[C@@H]2CC[C@H]1[C@H](Oc1ccc(C(F)(F)F)cn1)C2 [Example 76, (5-fluoro-2-(pyrimidin-2-yl)phenyl)((1S,3S,4R,6R)-3-(fluoromethyl)-6-((5-(trifluoromethyl)pyridin-2-yl)oxy)-2-azabicyclo[2.2.2]octan-2-yl)methanone] | 46 | 36 | > 10000
Cc1ccc(-n2nccn2)c(C(=O)N2[C@H](CF)[C@@H]3CC[C@H]2[C@H](Oc2ccc(C(F)(F)F)cn2)C3)n1 [Example 77, ((1S,3S,4R,6R)-3-(fluoromethyl)-6-((5-(trifluoromethyl)pyridin-2-yl)oxy)-2-azabicyclo[2.2.2]octan-2-yl)(6-methyl-3-(2H-1,2,3-triazol-2-yl)pyridin-2-yl)methanone] | 20 | 13 | 4780
O=C(c1cc(F)ccc1-n1nccn1)N1[C@H](CF)[C@@H]2CC[C@H]1[C@H](Oc1ccc(C(F)(F)F)cn1)C2 [Example 78, (5-fluoro-2-(2H-1,2,3-triazol-2-yl)phenyl)((1S,3S,4R,6R)-3-(fluoromethyl)-6-((5-(trifluoromethyl)pyridin-2-yl)oxy)-2-azabicyclo[2.2.2]octan-2-yl)methanone] | 102 | 122 | > 10000
O=C(c1cccc(F)c1-c1ncccn1)N1[C@H](CF)[C@@H]2CC[C@H]1[C@H](Oc1ccc(C(F)(F)F)cn1)C2 [Example 79, (3-fluoro-2-(pyrimidin-2-yl)phenyl)((1S,3S,4R,6R)-3-(fluoromethyl)-6-((5-(trifluoromethyl)pyridin-2-yl)oxy)-2-azabicyclo[2.2.2]octan-2-yl)methanone] | 46 | 49 | > 10000
O=C(c1cc(F)ccc1-c1ncc(F)cn1)N1[C@H](CF)[C@@H]2CC[C@H]1[C@H](Oc1ccc(C(F)(F)F)cn1)C2 [Example 80, (5-fluoro-2-(5-fluoropyrimidin-2-yl)phenyl)((1S,3S,4R,6R)-3-(fluoromethyl)-6-((5-(trifluoromethyl)pyridin-2-yl)oxy)-2-azabicyclo[2.2.2]octan-2-yl)methanone] | 35 | 43 | 4170
Cc1ccc(-n2nccn2)c(C(=O)N2[C@H](C)[C@H]3C[C@@H](Oc4ccc(C(F)F)cn4)[C@@H]2C3)n1 [Example 110, [(1R,2R,4S,5R)-5-[[5-(difluoromethyl)-2-pyridyl]oxy]-2-methyl-3-azabicyclo[2.2.1]heptan-3-yl]-[6-methyl-3-(triazol-2-yl)-2-pyridyl]methanone] | 5 | 7 | 146
C[C@@H]1[C@@H]2CC[C@@H]([C@H](Oc3ccc(C(F)(F)F)cn3)C2)N1C(=O)c1cccc(F)c1-c1ncccn1 [Example 148, (3-fluoro-2-pyrimidin-2-yl-phenyl)-[(1R,2R,4S,5R)-2-methyl-5-[[5-(trifluoromethyl)-2-pyridyl]oxy]-3-azabicyclo[2.2.2]octan-3-yl]methanone] | 14 | 12 | 2400
